Assays:
mice [1] = assay: Antagonism of selective opioid agonist-induced antinociception, intrathecal, modified tail flick assay; type: in vivo, mouse; details: for norBNI antagonism of antinociception with co-administered dynorphin-A antiserum (DAS): FIG. 7, FIG. 8
[2] = test system: guinea pig ileum preparation; assay: Guinea pig ileal longitudinal muscle preparation, electrically stimulated contraction; details: guinea pig ilium preparation
[3] = test system: mouse vas deferens preparation; assay: Mouse vas deferens preparation (MVD)
Procedure: Mouse vasa deferentia are prepared using the method of Henderson, et al (see Henderson, G.; Hughes, J.; Kosterlitz, H. W., Br. J. Pharmacol. 1972, 46, 764-766). Male ICR mice (30-35 g) are killed by cervical dislocation. Both vasa deferentia are removed and mounted between platinum ring electrodes and placed in a 10-mL organ bath containing a modified Kreb's solution (NaCl, 118 mM; KCl, 4.70 mM;CaCl2, 2.52 mM; KH2PO4, 1.19 mM; NaHCO3, 25 mM; glucose, 11.48 mM; pH =7.4) at 37° C. The bath is continuously bubbled with a 95% O2, 5% CO2, gas mixture. One end of the vas deferens is attached to the electrode assembly, the other is attached to a Statham-Gould UC-3 isometric force transducer using 6.0 surgical silk. The vasa deferentia are stimulated transmurally with a Grass S44 stimulator (square waves of supramaximal voltage (70 V) for 1 msec and a frequency of 0.1 Hz). Resting tension is 200 mg. Vasa deferentia are stimulated continuously for 20 minutes before each experiment to allow equilibration to occur. The tissues are washed every 10 minutes during this period.

mice [4] = assay: Tail-flick analgesia after intrathecal or intraventricular administration; type: in vivo, mouse
Excerpt: In the tail-flick assay which was modified for mice, the animal responses are made quantal by establishing and end point at the mean peak effect which represents an increase in the reaction time of an individual animal of greater than three S.D. of the control mean reaction time for all animals used in the group (see F. E. d'Amour et al., J. Pharmacol. Exp. Ther., 1941, 72, 7479; and J. J. Rady et al., J. Pharmacol Exp. Ther., 2000, 224, 93-101). Non-responding animals will be removed from the heat stimulus when reaction times exceed 3 seconds to avoid damage to their tails. At least 50 animals will be used to determine each peak time and ED50 dose-response curve. The ED50 and its 95% confidence interval are estimated using computer programs for both of these statistical procedures.

[5] = ED50 with nor-BNI / control ED50
[6] = agonist i.t. with antagonist BNTX 25 pmol/mouse i.t.
[7] = agonist i.t. with antagonist CTOP 5.9 pmol/mouse i.t.
[8] = agonist i.t. with antagonist NTB 50 pmol/mouse i.t.
[9] = agonist i.t. with antagonist nor-BNI 2.5 nmol/mouse i.t.
[10] = intrathecal (i.t.) administration

Compound | Potency Ratio (95% C.I.) (mice [1]; ED50 with BNTX / control ED50) | Potency Ratio (95% C.I.) (mice [1]; ED50 with CTOP / control ED50) | Potency Ratio (95% C.I.) (mice [1]; ED50 with NTB / control ED50) | Potency Ratio (95% C.I.) (mice [1]; [5]) | norBNI antagonism of antinociception with co-administered dynorphin-A antiserum (DAS) (mice [1]) | ED50 (95% C.I.) (mice [1]; [6]) | ED50 (95% C.I.) (mice [1]; [7]) | ED50 (95% C.I.) (mice [1]; [8]) | ED50 (95% C.I.) (mice [1]; [9]) | antagonism of antinociception by BNTX, in words (mice [1]; i.t., mice) | antagonism of antinociception by nor-BNI (κ antagonist), in words (mice [1]; i.t., mice) | antagonism of agonist effect by delta antagonist naltrindole (NTI) [2] | agonist or antagonist activity in MVD [3] | analgesia (mice [4]; icv, concentration 20-fold that of the i.t. dose) [%] | ED50 analgesia (mice [4]; [10]) [nmol/mouse] | antagonism of i.t. analgesia by norBNI (mice [4]; [10]) | analgesic effect (mice [4]; intraventricular (icv), 10-fold higher concentration than i.t.) | antagonism of antinociception by CTOP (μ antagonist), in words (mice [1]; i.t., mice)
[D-Pen^2,5]enkephalin [DPDPE] | 10.61 (6.08-18.51) | 1.43 (1.06-1.93) | 0.98 (0.71-1.41) | 12.44 (9.91-15.83) | failed to substantially reduce the potent norBNI antagonism | 41.10 (26.44-60.95) nmol/mouse | 5.11 (4.04-6.37)) nmol/mouse | 3.44 (2.69-4.45) nmol/mouse | 43.30 (36.40-51.59) nmol/mouse | antagonized | antagonized |  |  |  |  |  |  | 
NC(N)=Nc1ccc2c3c([nH]c2c1)[C@@H]1Oc2c(O)ccc4c2[C@@]12CCN(CC1CC1)C(C4)[C@]2(O)C3 [compound 7, 6′-Guanidino-17-(cyclopropylmethyl)-6,7-didehydro-4,5α-epoxy-3,14-hydroxyindolo-[2′,3′:6,7]morphinian] |  |  |  |  |  |  |  |  |  |  |  | non-competetively antagonized | inactive as an agonist or as an antagonist | 20 | 0.45 | could be antagonized by norBNI | no analgesic effect | 
C[C@@H](NC(=O)[C@@H](N)Cc1ccc(O)cc1)C(=O)NCC(=O)N(C)[C@@H](Cc1ccccc1)C(=O)NCCO [DAMGO, [D-Ala^2,N-Me-Phe^4,Gly-ol^5]enkephalin] | 1.50 (0.94-2.83) | 9.89 (5.91-15.34) | 1.20 (0.61-3.26) | 26.26 (16.30-46.90) | little if any antagonism | 0.017 (0.012-0.027) nmol/mouse | 0.112 (0.070-0.157) nmol/mouse | 0.014 (0.008-0.027) nmol/mouse | 0.283 (0.202-0.417) nmol/mouse |  | antagonized |  |  |  |  |  |  | antagonized
